Key:
human sACt protein [1] = molecular target: T1, human sACt protein (Homo sapiens (Human), UniProt Q96PN6); assay: RF-MSS in vitro cyclase assay, concentration-response
Description: To avoid assay dependent artifacts, reproducibility and concentration-dependency were simultaneously assessed in the RF-MSS cyclase assay as well as in an independent colorimetric competitive enzyme immunoassay (i.e., ELISA-based Correlate-EIA Direct cAMP Assay). […] This instrument also includes a Zymark Twister® robotic arm that handles microtiter plates and a purification SPE system. 35 μl of sample was aspirated from each well of a 384-well reaction microtiter plate and then injected onto a graphitized carbon SPE column extraction cartridge, washing with aqueous alkaline buffer and eluting it in an alkaline/organic solvent, onto the electrospray-MS, where the mass spectra of each sample was collected. The RapidFire sipper was washed between sample injections using organic (25% acetonitrile, 25% acetone in 5 mM ammonium acetate, pH 10) and aqueous (5 mM ammonium acetate, pH 10) solvents. RapidFire mass spectrometry screening data were processed and analyzed using Agilent MassHunter Software.

sAC = sAC (Homo sapiens (Human), UniProt Q96PN6); assay: ELISA-based Correlate-EIA Direct cAMP Assay of in vitro sAC activity
Description: To avoid assay dependent artifacts, reproducibility and concentration-dependency were simultaneously assessed in the RF-MSS cyclase assay as well as in an independent colorimetric competitive enzyme immunoassay (i.e., ELISA-based Correlate-EIA Direct cAMP Assay).

human sACt protein [2] = molecular target: T1, human sACt protein; assay: Primary high-throughput screen for sAC inhibitors (RF-MSS cyclase assay); type: biochemical; conditions: screened at 10 μM; 1 mM ATP, 5 mM MgCl2, 5 mM CaCl2, 40 mM NaHCO3
Description: This instrument also includes a Zymark Twister® robotic arm that handles microtiter plates and a purification SPE system. 35 μl of sample was aspirated from each well of a 384-well reaction microtiter plate and then injected onto a graphitized carbon SPE column extraction cartridge, washing with aqueous alkaline buffer and eluting it in an alkaline/organic solvent, onto the electrospray-MS, where the mass spectra of each sample was collected. The RapidFire sipper was washed between sample injections using organic (25% acetonitrile, 25% acetone in 5 mM ammonium acetate, pH 10) and aqueous (5 mM ammonium acetate, pH 10) solvents. RapidFire mass spectrometry screening data were processed and analyzed using Agilent MassHunter Software.
The primary screen was performed in polystyrene 384-well microplates (Greiner Bio One International AG). […] The reagents were dispensed using a liquid handling instrument Multidrop™ Combi Assay buffer (50 mM Tris pH 7.5, 5 mM CaCl2, 5 mM MgCl2, 40 mM NaHCO3, 2 mM DTT) was added first on the 384-well plate (Greiner Bio-One) followed by the compounds. The small molecule compounds were dispensed with a nanohead containing a 384-well array of Norgren Kloehn nanosyringes, and each plate was bar-coded. The human sACt protein was added next followed by the remainder of the assay buffer. […]

[3] = CyQUANT cell proliferation/viability assay; type: cell-based
Description: (§1) The next day, compounds were added (ten concentrations), and the plates were incubated for 24 or 48 hrs at 37° C./5% CO2, and viability was quantified by measuring cellular ATP using luminescence (CellTiter-Glo®, Promega, Madison, Wis., USA) or viability based upon amount of DNA (CyQUANT®, ThermoFisher).

MEFs = assay: CellTiter-Glo cytotoxicity assay; type: cell-based, mouse
Description: Cell viability, as determined by CellTiter-Glo, is shown as luminescence; values are averages of triplicate determinations ±S.E.M. of a representative experiment repeated at least two times. […] Data represent single measurements of a representative experiment repeated at least two times.
as §1

mouse brain mitochondria = assay: Membrane potential in isolated mouse brain mitochondria (uncoupling); conditions: 50 and 100 μM LRE1, 50 μM KH7

T1 sequence (Q96PN6 1-469): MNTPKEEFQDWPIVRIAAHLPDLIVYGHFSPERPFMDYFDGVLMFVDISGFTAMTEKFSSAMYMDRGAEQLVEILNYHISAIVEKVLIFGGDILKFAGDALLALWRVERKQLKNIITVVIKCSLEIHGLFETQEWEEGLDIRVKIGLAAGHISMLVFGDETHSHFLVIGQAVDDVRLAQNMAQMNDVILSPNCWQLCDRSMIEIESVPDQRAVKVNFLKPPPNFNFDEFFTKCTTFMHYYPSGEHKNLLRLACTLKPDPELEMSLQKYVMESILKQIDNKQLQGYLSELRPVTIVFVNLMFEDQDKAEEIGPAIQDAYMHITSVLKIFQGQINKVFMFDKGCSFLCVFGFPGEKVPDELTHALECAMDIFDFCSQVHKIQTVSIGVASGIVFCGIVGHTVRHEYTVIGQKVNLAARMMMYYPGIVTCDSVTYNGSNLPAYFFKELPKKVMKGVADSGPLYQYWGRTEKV
Chain of sAC (Q96PN6 1-469): as above

SMILES	IC50 (human sACt protein [1]) [µM]	IC50 (sAC) [µM]	Primary Screen (% NPI) (human sACt protein [2])	toxicity (CyQUANT) ([3]; second day)	toxicity (CyQUANT) ([3]; single day)	toxicity (CellTiter-Glo) (MEFs; 2 days in culture, WT MEFs, KH7 at low μM, LRE1 up to 50 μM)	toxicity (CellTiter-Glo) (MEFs; single day in culture)	mitochondrial uncoupling (mouse brain mitochondria)
Cc1cccc(-n2nc(S)sc2=S)c1 [RU-0207328]	> 20	> 20	58.1	–	–	–	–	–
CC(Sc1nc2ccccc2[nH]1)C(=O)N/N=C/c1cc(Br)ccc1O (centres unmarked) [KH7]	–	–	–	toxic at low μM concentrations	neither LRE1 nor KH7 were toxic	toxic	neither compound exhibited significant toxicity	uncoupling effect

Source: US10981899B2, “Inhibitors of soluble adenylyl cyclase” (CORNELL UNIVERSITY, priority 2016, dated 2021)
